Patent US4057644A, “Active derivatives of methylamine in therapeutic compositions and methods of use” (priority 1976, dated 1977)
Read-outs that look alike come from different tables or passages of the source.

Experiments:
[1] = tested on: reserpine-induced catatonia; experiment: Inhibition of reserpine-induced catatonia; type: in vivo, rat (male, OFA strain); conditions: rat
Experimental: Ater sufficient doses of reserpine have been administered to the rat, a series of symptoms occur, more particularly ptosis, catatonia and a drop in central temperature. These symptoms are caused by the depletion of the intrangranular reserve pool of biogenetic amines at the synaptic terminals.
An oral dose of the compound to be studied in aqueous solution was administered to batches of 10 male rats of the OFA strain weighing about 150 to 200 g. Thirty minutes later a dose of 5 mg/kg of reserpine was given by intraperitoneal route. Three hours after the injection of reserpine, the animals were suspended by the four paws to a horizontally stretched wire fixed at 15 cm from the ground. The catatonic animals were those which maintained the position so given for at least 30 seconds. […] The maximum score was therefore 10 per batch. An identical trial was undertaken with control animals which received reserpine but none of the compounds being studied.

[2] = tested on: neuroleptic-induced catatonia (prochlorperazine); experiment: Inhibition of neuroleptic-induced catatonia; type: in vivo, rat (male, OFA strain); conditions: rat, oral; versus amantadine
Experimental: The blocking of dopaminergic receptors by neuroleptics in the extra-pyramidal system induces catatonia in the rat. Catatonia is differentiated from sedative properties by means of the test used hereabove for reserpine-induced catatonia. The same system of scoring was also employed in the present case.
An oral dose of the compound to be studied in aqueous solution was administered to batches of 10 male rats of the OFA strain weighing about 150 to 200 g.
Three hours after the injection of this latter compound, catatonia was measured. An identical trial was also carried out with control animals which received prochlorperazine but none of the compounds under study.

[3] = tested on: catalepsy; experiment: Inhibition of prochlorperazine-induced catalepsy (crossing of homolateral paws); type: in vivo; conditions: Rattus norvegicus, po, 3 h, read-out: dose giving complete inhibition of the catalepsy
Excerpt: […]. These trails involved catalepsy as evidenced by the crossing of the animal's homolateral paws.

[4] = tested on: reserpine-induced catatonia; experiment: Suppression of reserpine-induced catatonia (curative treatment); type: in vivo, rat (male, OFA strain); conditions: 2.5 and 5 mg/kg oral, versus amantadine 80 mg/kg
Experimental: Batches of 5 male rats of the OFA strain, weighing 150 to 200 g were given 5 mg/kg of reserpine by intraperitoneal route. One hour and 45 minutes later, namely when the animals were in state of catatonia, an aqueous dose of the compound to be studied was administered by oral route to all the animals with the exception of the control group.
The progress of the catatonia was then noted following the scale used in the tests described hereabove.
The maximum score was thus 5 per batch which means that all the animals of the batch were considered to be still in a state of catatonia.

[5] = tested on: neuroleptic-induced catatonia (prochlorperazine); experiment: Suppression of neuroleptic-induced catatonia (curative treatment); type: in vivo, rat (male, OFA strain); conditions: 5 mg/kg, versus amantadine 80 mg/kg
Experimental: Fifty-five minutes later, an oral dose in aqueous solution of the compound to be studied was administered to all the animals with the exception of the control group. The progress of the catatonia was noted following the same scale as that used in the tests described above.

[6] = tested on: isolated duodenum of the rat; experiment: MAGNUS test, inhibition of acetylcholine spasm in vitro (cholinolytic/spasmolytic)
Excerpt: This test consists in determining the dose of acetylcholine which, when added to the bath, provokes spasm of the isolated duodenum of the rat. The next step consists in determining the dose of the compound under study which, when added to the bath 30 seconds before the acetylcholine, reduces the spasm.

[7] = tested on: tremorine-induced cholinergic effects; experiment: Anti-tremorine test; type: in vivo, mice (male, OF1 strain); design: key to central cholinergic effects score (normal and provoked tremor): 0: no action; 1: slight action; 2: average action; 3: strong action; 4: very strong action
Experimental: When injected into mice, tremorine produces peripheral effects i.e. weeping, sweating, salivation and diarrhoea and central effects i.e. tremor and akinesia. Such effects are due to an increase in the amount of intracerebral acetylcholine and serotonine.
Male mice of the OF1 strain weighing about 22 g were divided into batches of 10. […] Thirty minutes later a dose of 10 mg/kg of tremorine was injected by intraperitoneal route and, at different times after this injection, note was taken of the cholinergic effects on each animal in accordance with the following scale: […]

[8] = Spasmolytic activity in vivo; conditions: at doses well below the toxic dose
[9] = Anti-cholinergic (cholinolytic) activity
[10] = J. Amer. Chem. Soc., 71, 3352 (1949); cited from earlier work
[11] = J. Amer. Chem. Soc., 71, 3352 (1949); cited from earlier work; remark: listed apart in the source
[12] = tested on: norepinephrine effects on arterial pressure and nictitating membrane; experiment: Influence on peripheral noradrenergic phenomena (arterial pressure, nictitating membrane); conditions: cat; for Contractile reaction of the nictitating membrane with electric stimulation / Contractile reaction of the nictitating membrane without electric stimulation / Increase in arterial pressure after injection of norepinephrine: i.v.
Experimental: A cat, anaesthetized with pentobarbital, received a sufficient dose of norepinephrine to increase arterial pressure but not sufficient to cause contraction of the nictitating membrane. Arterial pressure was measured at the carotid immediately after administration of the dose of norepinephrine.

## CCCC(N)(CCC)CCC [Compound 1]
[1]; in vivo
  degree of activity (pharmacological trials): marked degree of activity
[1]; oral, versus amantadine
  dose of equal activity compared with amantadine (reserpine-induced catatonia): twenty times inferior
[2]
  activity compared with amantadine (neuroleptic-induced catatonia): twenty times more active
[3]
  ED100: 5 mg/kg
[4]
  rapidity of suppression of reserpine-induced catatonia: more rapidly
[5]
  rapidity of action against neuroleptic-induced catatonia: more rapidly
[6]
  spasmolytic / cholinolytic activity in vitro: virtually non-existent
[6]; listed as tri-n-propylmethylamine
  spasmolytic / cholinolytic activity in vitro: very weak, in fact practically non-existent
[7]; 5 mg/kg oral, 20, 30 and 40 minutes after tremorine, printed as identical results
  central cholinergic effects score (normal and provoked tremor): 4
[7]; mice, oral
  antitremorine properties: devoid of antitremorine properties
[8]
  spasmolytic activity in vivo: non-existent
[9]
  anti-cholinergic (cholinolytic) activity: devoid of anti-cholinergic activity
[10]
  spasmolytic activity versus the corresponding trialkylethylamines: less spasmolytic
[11]
  toxicity versus the corresponding trialkylethylamines: more toxic
[12]
  potentiation of endogenous norepinephrine: does not potentiate
  potentiation of exogenous norepinephrine / peripheral adrenergic effects: does not potentiate
[12]; cumulative dose 0.1 mg/kg
  Contractile reaction of the nictitating membrane with electric stimulation: 15 mm
  Contractile reaction of the nictitating membrane without electric stimulation: 0 mm
  Increase in arterial pressure after injection of norepinephrine: 18 mm Hg
[12]; cumulative dose 1 mg/kg
  Contractile reaction of the nictitating membrane with electric stimulation: 16 mm
  Contractile reaction of the nictitating membrane without electric stimulation: 0 mm
  Increase in arterial pressure after injection of norepinephrine: 25 mm Hg
[12]; cumulative dose 3 mg/kg
  Contractile reaction of the nictitating membrane with electric stimulation: 17 mm
  Contractile reaction of the nictitating membrane without electric stimulation: 0 mm
  Increase in arterial pressure after injection of norepinephrine: 29 mm Hg
[12]; cumulative dose 5 mg/kg
  Contractile reaction of the nictitating membrane with electric stimulation: 16 mm
  Contractile reaction of the nictitating membrane without electric stimulation: 0 mm
  Increase in arterial pressure after injection of norepinephrine: 25 mm Hg
[12]; cumulative dose 10 mg/kg
  Contractile reaction of the nictitating membrane with electric stimulation: 12 mm
  Contractile reaction of the nictitating membrane without electric stimulation: 0 mm
  Increase in arterial pressure after injection of norepinephrine: 22 mm Hg
[12]; listed as preferred compound of the invention
  potentiation of exogenous norepinephrine / peripheral adrenergic effects: does not potentiate the peripheral effects of norepinephrine
